Measurements reported in the NIST ThermoML archive (doi:10.1021/je301084m).
± gives the expanded uncertainty stated by the source.

Assay: wn = mass fraction of the nth substance listed
Conditions: 101 kPa, Liquid; for viscosity: Capillary tube (Ostwald / Ubbelohde) method; for mass density: Pycnometric method

O=[N+]([O-])[O-].[Li+] [lithium nitrate] + O
Conditions | mass density [kg/m3] | viscosity [mPa·s]
283.15 K, w1 = 0.3 | 1203 ± 2 | 2.41 ± 0.043
293.15 K, w1 = 0.3 | 1199 ± 2 | 1.902 ± 0.042
293.15 K, w1 = 0.35 | 1236 ± 2 | 2.241 ± 0.043
293.15 K, w1 = 0.4 | 1274 ± 2 | 2.791 ± 0.044
303.15 K, w1 = 0.3 | 1193 ± 2 | 1.535 ± 0.041
303.15 K, w1 = 0.35 | 1231 ± 2 | 1.85 ± 0.042
303.15 K, w1 = 0.4 | 1269 ± 2 | 2.24 ± 0.043
303.15 K, w1 = 0.45 | 1314 ± 2 | 2.87 ± 0.045
303.15 K, w1 = 0.5 | 1358 ± 2 | 3.839 ± 0.05
303.15 K, w1 = 0.55 | 1405 ± 2 | 5.357 ± 0.054
313.15 K, w1 = 0.3 | 1188 ± 2 | 1.3 ± 0.041
313.15 K, w1 = 0.35 | 1225 ± 2 | 1.552 ± 0.041
313.15 K, w1 = 0.4 | 1263 ± 2 | 1.888 ± 0.042
313.15 K, w1 = 0.45 | 1307 ± 2 | 2.363 ± 0.043
313.15 K, w1 = 0.5 | 1352 ± 2 | 3.114 ± 0.046
313.15 K, w1 = 0.55 | 1398 ± 2 | 4.299 ± 0.051
313.15 K, w1 = 0.6 | 1449 ± 2 | 6.274 ± 0.059
323.15 K, w1 = 0.3 | 1179 ± 2 | 1.112 ± 0.041
323.15 K, w1 = 0.35 | 1216 ± 2 | 1.306 ± 0.041
323.15 K, w1 = 0.4 | 1257 ± 2 | 1.58 ± 0.041
323.15 K, w1 = 0.45 | 1300 ± 2 | 1.994 ± 0.042
323.15 K, w1 = 0.5 | 1346 ± 2 | 2.543 ± 0.044
323.15 K, w1 = 0.55 | 1391 ± 2 | 3.515 ± 0.047
323.15 K, w1 = 0.6 | 1440 ± 2 | 4.961 ± 0.054
333.15 K, w1 = 0.3 | 1173 ± 2 | 0.95 ± 0.04
333.15 K, w1 = 0.35 | 1210 ± 2 | 1.134 ± 0.041
333.15 K, w1 = 0.4 | 1250 ± 2 | 1.356 ± 0.041
333.15 K, w1 = 0.45 | 1293 ± 2 | 1.7 ± 0.042
333.15 K, w1 = 0.5 | 1339 ± 2 | 2.143 ± 0.043
333.15 K, w1 = 0.55 | 1384 ± 2 | 2.926 ± 0.045
333.15 K, w1 = 0.6 | 1432 ± 2 | 4.153 ± 0.049
333.15 K, w1 = 0.65 | 1494 ± 2 | 5.721 ± 0.054
343.15 K, w1 = 0.3 | 1166 ± 2 | 0.826 ± 0.04
343.15 K, w1 = 0.35 | 1203 ± 2 | 0.985 ± 0.041
343.15 K, w1 = 0.4 | 1243 ± 2 | 1.182 ± 0.041
343.15 K, w1 = 0.45 | 1286 ± 2 | 1.479 ± 0.041
343.15 K, w1 = 0.5 | 1331 ± 2 | 1.854 ± 0.042
343.15 K, w1 = 0.55 | 1376 ± 2 | 2.493 ± 0.043
343.15 K, w1 = 0.6 | 1424 ± 2 | 3.472 ± 0.047
343.15 K, w1 = 0.65 | 1486 ± 2 | 4.764 ± 0.051
353.15 K, w1 = 0.3 | 1159 ± 2 | 0.731 ± 0.04
353.15 K, w1 = 0.35 | 1196 ± 2 | 0.864 ± 0.04
353.15 K, w1 = 0.4 | 1236 ± 2 | 1.041 ± 0.041
353.15 K, w1 = 0.45 | 1279 ± 2 | 1.302 ± 0.041
353.15 K, w1 = 0.5 | 1324 ± 2 | 1.616 ± 0.041
353.15 K, w1 = 0.55 | 1369 ± 2 | 2.158 ± 0.043
353.15 K, w1 = 0.6 | 1416 ± 2 | 2.955 ± 0.045
353.15 K, w1 = 0.65 | 1479 ± 2 | 4.02 ± 0.048
363.15 K, w1 = 0.3 | 1152 ± 2 | 0.65 ± 0.04
363.15 K, w1 = 0.35 | 1189 ± 2 | 0.773 ± 0.04
363.15 K, w1 = 0.4 | 1230 ± 2 | 0.927 ± 0.04
363.15 K, w1 = 0.45 | 1272 ± 2 | 1.149 ± 0.041
363.15 K, w1 = 0.5 | 1317 ± 2 | 1.466 ± 0.041
363.15 K, w1 = 0.55 | 1361 ± 2 | 1.882 ± 0.042
363.15 K, w1 = 0.6 | 1408 ± 2 | 2.564 ± 0.043
363.15 K, w1 = 0.65 | 1472 ± 2 | 3.394 ± 0.046
373.15 K, w1 = 0.3 | 1144 ± 2 | 0.586 ± 0.04
373.15 K, w1 = 0.35 | 1181 ± 2 | 0.7 ± 0.04
373.15 K, w1 = 0.4 | 1222 ± 2 | 0.837 ± 0.04
373.15 K, w1 = 0.45 | 1265 ± 2 | 1.034 ± 0.041
373.15 K, w1 = 0.5 | 1309 ± 2 | 1.306 ± 0.041
373.15 K, w1 = 0.55 | 1353 ± 2 | 1.693 ± 0.041
373.15 K, w1 = 0.6 | 1400 ± 2 | 2.248 ± 0.043
373.15 K, w1 = 0.65 | 1464 ± 2 | 2.953 ± 0.044
383.15 K, w1 = 0.4 | 1213 ± 2 | 0.763 ± 0.04
383.15 K, w1 = 0.45 | 1258 ± 2 | 0.938 ± 0.04
383.15 K, w1 = 0.5 | 1301 ± 2 | 1.175 ± 0.041
383.15 K, w1 = 0.55 | 1346 ± 2 | 1.505 ± 0.041
383.15 K, w1 = 0.6 | 1393 ± 2 | 1.993 ± 0.042
383.15 K, w1 = 0.65 | 1456 ± 2 | 2.615 ± 0.043
393.15 K, w1 = 0.5 | 1294 ± 2 | –
393.15 K, w1 = 0.55 | 1338 ± 2 | 1.371 ± 0.041
393.15 K, w1 = 0.6 | 1385 ± 2 | 1.785 ± 0.042
393.15 K, w1 = 0.65 | 1448 ± 2 | 2.307 ± 0.042
403.15 K, w1 = 0.6 | 1377 ± 2 | 1.625 ± 0.041
403.15 K, w1 = 0.65 | 1440 ± 2 | 2.095 ± 0.042
413.15 K, w1 = 0.65 | 1430 ± 2 | 1.923 ± 0.042
